For this experiment, the system named is RAW264.7. Kind of experiment: Antiinflammatory activity against LPS-stimulated mouse RAW264.7 cells assessed as decrease in PGE2 production preincubated for 1 hr followed by LPS stimulation and measured after 24 hrs by ELISA. It is filed as functional, cell-based.

Take `C=CCc1ccc(O[C@@H]2O[C@H](CO)[C@@H](O)[C@H](O)[C@H]2O)cc1`: the IC50 (usually the concentration that inhibits the measured activity by half) was 18.3 µM.
As for `C=CCc1ccc(O[C@@H]2O[C@H](CO)[C@@H](O)[C@H](O)[C@H]2O)c(O)c1`, the figure is 3.2 µM; as for `CC1=CC(=O)CC(C)(C)[C@H]1/C=C/[C@@H](C)O[C@@H]1O[C@H](CO)[C@@H](O)[C@H](O)[C@H]1O`, 16.8 µM.
To `COc1ccc(-c2cc(=O)c3c(O)cc(O[C@@H]4O[C@H](COC(=O)CC(=O)O)[C@@H](O)[C@H](O)[C@H]4O)cc3o2)cc1` belongs 18.7 µM; to `COc1cc(/C=C/C(=O)OC[C@H]2O[C@@H](OCC/C=C\C[C@H]3C(=O)CC[C@@H]3CC(=O)O)[C@H](O)[C@@H](O)[C@@H]2O)ccc1O`, more than 50 µM.
In the case of `C=CCc1ccc(O)c(O[C@@H]2O[C@H](CO)[C@@H](O)[C@H](O)[C@H]2O)c1`, the IC50 was found to be 4.1 µM.
For `COc1ccc(-c2cc(=O)c3c(O)cc(O[C@@H]4O[C@H](CO)[C@@H](O)[C@H](OC(C)=O)[C@H]4O)cc3o2)cc1`, the concentration for half-maximal inhibition (IC50) is more than 50 µM.
As to `COc1ccc(-c2cc(=O)c3c(O)cc(O[C@@H]4O[C@H](CO)[C@@H](O)[C@H](O)[C@H]4OC(C)=O)cc3o2)cc1`, the IC50 is 4.7 µM.
To `COc1cc(/C=C/C(=O)OC[C@H]2O[C@@H](Oc3ccccc3C(=O)O)[C@H](O)[C@@H](O)[C@@H]2O)ccc1O` belongs 33.9 µM.
As to `C=CCc1ccc(O[C@@H]2O[C@H](COC(=O)CC(=O)OC)[C@@H](O)[C@H](O)[C@H]2O)cc1`, the IC50 amounted to 14.3 µM.
Consider `COc1ccc([C@@H]2CC(=O)c3c(O)cc(O[C@@H]4O[C@H](CO)[C@@H](O)[C@H](O)[C@H]4O)cc3O2)cc1`, for which the IC50 is more than 50 µM.
In the case of `C=CCc1ccc(O[C@@H]2O[C@H](COC(C)=O)[C@@H](O)[C@H](O)[C@H]2O)cc1`, the IC50 came out at 48.8 µM.
To `COc1ccc(-c2cc(=O)c3c(O)cc(O[C@@H]4O[C@H](COC(=O)CC(=O)O)[C@@H](O)[C@H](OC(C)=O)[C@H]4O)cc3o2)cc1` belongs 16.8 µM.
As for `COc1ccc(-c2cc(=O)c3c(O)cc(O[C@@H]4O[C@H](COC(=O)CC(=O)O)[C@@H](O)[C@H](O)[C@H]4OC(C)=O)cc3o2)cc1`, the figure is 28.8 µM; as for `COc1ccc(-c2cc(=O)c3c(O)cc(O[C@@H]4O[C@H](CO)[C@@H](O)[C@H](O)[C@H]4O)cc3o2)cc1O`, more than 50 µM.
To `COc1ccc(-c2cc(=O)c3c(O)cc(O)cc3o2)cc1` [ACACETIN] belongs 6.2 µM; to `O=c1cc(-c2ccc(O)cc2)oc2cc(O)cc(O)c12` [APIGENIN], 13.4 µM.
`O=c1cc(-c2ccc(O)cc2)oc2cc(O[C@@H]3O[C@H](CO)[C@@H](O)[C@H](O)[C@H]3O)cc(O)c12` [APIGETRIN]: the half-inhibitory concentration (IC50) is more than 50 µM.
As for `C=CCc1ccc(O[C@@H]2O[C@H](CO)[C@@H](O)[C@H](O)[C@H]2O)c(OC)c1` [CITRUSIN C], the figure is 1.7 µM; as for `COc1ccc(-c2cc(=O)c3c(O)cc(O)cc3o2)cc1O` [DIOSMETIN], 8.4 µM.
To `CCOC(=O)/C=C/c1ccc(O)c(O)c1` [ETHYL CAFFEATE] belongs 2 µM; to `CCOC(=O)[C@@H](Cc1ccc(O)c(O)c1)OC(=O)/C=C/c1ccc(O)c(O)c1` [ETHYL ROSMARINATE], 4.3 µM; to `O=c1cc(-c2ccc(O)c(O)c2)oc2cc(O[C@@H]3O[C@H](CO)[C@@H](O)[C@H](O)[C@H]3O)cc(O)c12` [GALUTEOLIN], 6.1 µM.
To `O=c1cc(-c2ccc(O)c(O)c2)oc2cc(O)cc(O)c12` [LUTEOLIN] belongs 8.1 µM; to `COC(=O)[C@@H](Cc1ccc(O)c(O)c1)OC(=O)/C=C/c1ccc(O)c(O)c1` [METHYL ROSMARINATE], 11.3 µM; to `COC(=O)/C=C/c1ccc(O)c(O)c1` [METHYLCAFFEATE], 3.9 µM.
Regarding `O=C(/C=C/c1ccc(O)c(O)c1)O/C=C\c1ccc(O)c(O)c1` [NEPETOIDIN B], the IC50 turned out to be 3.8 µM.
For the compound `CS(=O)(=O)Nc1ccc([N+](=O)[O-])cc1OC1CCCCC1` [NS-398], the IC50 was determined as 0.0067 µM.
Turning to `O=C(CCc1ccc(O)cc1)c1c(O)cc(O)cc1O[C@@H]1O[C@H](CO)[C@@H](O)[C@H](O)[C@H]1O` [PHLORIZIN], the IC50 was found to be 14.6 µM.
Regarding `O=C(/C=C/c1ccc(O)c(O)c1)O[C@H](Cc1ccc(O)c(O)c1)C(=O)O` [ROSMARINIC ACID], the IC50 was 34.2 µM.
For the compound `COc1ccc(-c2cc(=O)c3c(O)cc(O[C@@H]4O[C@H](CO)[C@@H](O)[C@H](O)[C@H]4O)cc3o2)cc1` [TILIANINE], the IC50 was 7.4 µM.
Consider `COc1ccc(C(=O)O)cc1` [p-ANISIC ACID], for which the IC50 is more than 50 µM.

(Values after ChEMBL document CHEMBL4414659, “Chemical Constituents from the Aerial Parts of Agastache rugosa and Their Inhibitory Activities on Prostaglandin E2 Production in Lipopolysaccharide-Treated RAW 264.7 Macrophages” (J Nat Prod, 2019).)
